Experimental data taken from patent US20240376084A1, “INHIBITORS OF ALPHA-HEMOLYSIN OF STAPHYLOCOCCUS AUREUS” (Helmholtz-Zentrum Fur Infektionsforschung GmbH, priority 2021, published 2024).

Columns and labels:
[1] = biological target: hemolysin alpha from Staphylococcus aureus (Staphylococcus aureus, UniProt P09616); assay: cell-based
[2] = biological target: S. aureus Alpha hemolysin (Staphylococcus aureus, UniProt P09616); assay: cell-based; settings: A549-LDH Assay activity
Chain of S. aureus Alpha hemolysin (P09616 27-319 limits assumed): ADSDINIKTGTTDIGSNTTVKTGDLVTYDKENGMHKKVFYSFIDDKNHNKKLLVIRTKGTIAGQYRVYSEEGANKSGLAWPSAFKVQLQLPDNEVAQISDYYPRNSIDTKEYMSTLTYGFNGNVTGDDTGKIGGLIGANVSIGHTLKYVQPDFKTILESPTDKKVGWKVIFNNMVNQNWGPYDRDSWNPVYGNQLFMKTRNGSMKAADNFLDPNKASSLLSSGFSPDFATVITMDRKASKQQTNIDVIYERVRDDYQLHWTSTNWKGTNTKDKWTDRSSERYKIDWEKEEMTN

Chain of hemolysin alpha from Staphylococcus aureus (P09616 27-319 limits assumed): as above

CC(C)c1cc2[nH]c(=O)c(=O)[nH]c2cc1S(=O)(=O)Nc1ccc(OC(F)(F)F)cc1 [Compound 31, 7-isopropyl-2,3-dioxo-N-(4-(trifluoromethoxy)phenyl)-1,2,3,4-tetrahydroquinoxaline-6-sulfonamide]
IC50 [1]: < 30 nM
EC50 [2]: < 30 nM

O=c1[nH]c2cc(Cl)c(S(=O)(=O)Nc3ccc(-c4ccsc4)c(Cl)c3)cc2[nH]c1=O [Compound 32, 7-chloro-N-(3-chloro-4-(thiophen-3-yl)phenyl)-2,3-dioxo-1,2,3,4-tetrahydroquinoxaline-6-sulfonamide]
IC50 [1]: < 30 nM
EC50 [2]: 100 to 1000 nM

Cc1cc(NS(=O)(=O)c2cc3[nH]c(=O)c(=O)[nH]c3cc2F)ccc1-c1ccccc1 [Compound 33, 7-fluoro-N-(2-methyl-[1,1′-biphenyl]-4-yl)-2,3-dioxo-1,2,3,4-tetrahydroquinoxaline-6-sulfonamide]
IC50 [1]: < 30 nM
EC50 [2]: 30 to 100 nM

CN(C)c1cccc(-c2ccc(NS(=O)(=O)c3cc4[nH]c(=O)c(=O)[nH]c4cc3F)cc2Cl)c1 [Compound 34, N-(2-chloro-3′-(dimethylamino)-[1,1′-biphenyl]-4-yl)-7-fluoro-2,3-dioxo-1,2,3,4-tetrahydroquinoxaline-6-sulfonamide]
IC50 [1]: < 30 nM
EC50 [2]: 100 to 1000 nM

O=c1[nH]c2cc(Cl)c(S(=O)(=O)Nc3ccc(-c4cccc(Cl)c4)c(Cl)c3)cc2[nH]c1=O [Compound 35, 7-chloro-N-(2,3′-dichloro-[1,1′-biphenyl]-4-yl)-2,3-dioxo-1,2,3,4-tetrahydroquinoxaline-6-sulfonamide]
IC50 [1]: < 30 nM
EC50 [2]: 100 to 1000 nM

O=c1[nH]c2cc(F)c(S(=O)(=O)Nc3ccc(-c4ccccc4F)c(Cl)c3)cc2[nH]c1=O [Compound 36, N-(2-chloro-2′-fluoro-[1,1′-biphenyl]-4-yl)-7-fluoro-2,3-dioxo-1,2,3,4-tetrahydroquinoxaline-6-sulfonamide]
IC50 [1]: < 30 nM
EC50 [2]: 100 to 1000 nM

Cc1cc2[nH]c(=O)c(=O)[nH]c2cc1S(=O)(=O)Nc1ccc(-c2ccncc2)c(Cl)c1 [Compound 37, N-(3-chloro-4-(pyridin-4-yl)phenyl)-7-methyl-2,3-dioxo-1,2,3,4-tetrahydroquinoxaline-6-sulfonamide]
IC50 [1]: < 30 nM
EC50 [2]: 30 to 100 nM

Cc1ccc(-c2ccc(NS(=O)(=O)c3cc4[nH]c(=O)c(=O)[nH]c4cc3C)cc2Cl)cc1 [Compound 38, N-(2-chloro-4′-methyl-[1,1′-biphenyl]-4-yl)-7-methyl-2,3-dioxo-1,2,3,4-tetrahydroquinoxaline-6-sulfonamide]
IC50 [1]: 30 to 100 nM
EC50 [2]: 100 to 1000 nM

Cc1cc2[nH]c(=O)c(=O)[nH]c2cc1S(=O)(=O)Nc1ccc(-c2cccc(C(C)C)c2)c(Cl)c1 [Compound 39, N-(2-chloro-3′-isopropyl-[1,1′-biphenyl]-4-yl)-7-methyl-2,3-dioxo-1,2,3,4-tetrahydroquinoxaline-6-sulfonamide]
IC50 [1]: 30 to 100 nM
EC50 [2]: 1000 to 6000 nM

O=c1[nH]c2cc(F)c(S(=O)(=O)Nc3ccc(-c4ccccc4)c(Cl)c3)cc2[nH]c1=O [Compound 40, N-(2-chloro-[1,1′-biphenyl]-4-yl)-7-fluoro-2,3-dioxo-1,2,3,4-tetrahydroquinoxaline-6-sulfonamide]
IC50 [1]: 30 to 100 nM
EC50 [2]: 100 to 1000 nM

CCCc1ccc(NS(=O)(=O)c2cc3[nH]c(=O)c(=O)[nH]c3cc2Br)cc1 [Compound 41, 7-bromo-2,3-dioxo-N-(4-propylphenyl)-1,2,3,4-tetrahydroquinoxaline-6-sulfonamide]
IC50 [1]: 30 to 100 nM
EC50 [2]: 30 to 100 nM

Cc1cc2[nH]c(=O)c(=O)[nH]c2cc1S(=O)(=O)Nc1cc(C)c(-c2ccsc2)c(C)c1 [Compound 42, N-(3,5-dimethyl-4-(thiophen-3-yl)phenyl)-7-methyl-2,3-dioxo-1,2,3,4-tetrahydroquinoxaline-6-sulfonamide]
IC50 [1]: 30 to 100 nM
EC50 [2]: 100 to 1000 nM

Cc1cc2[nH]c(=O)c(=O)[nH]c2c(F)c1S(=O)(=O)Nc1ccc(-c2cccc(Cl)c2)c(Cl)c1 [Compound 43, N-(2,3′-dichloro-[1,1′-biphenyl]-4-yl)-5-fluoro-7-methyl-2,3-dioxo-1,2,3,4-tetrahydroquinoxaline-6-sulfonamide]
IC50 [1]: 30 to 100 nM
EC50 [2]: 1000 to 6000 nM

O=c1[nH]c2cc(Cl)c(S(=O)(=O)Nc3ccc(-c4ccoc4)c(Cl)c3)cc2[nH]c1=O [Compound 44, 7-chloro-N-(3-chloro-4-(furan-3-yl)phenyl)-2,3-dioxo-1,2,3,4-tetrahydroquinoxaline-6-sulfonamide]
IC50 [1]: 30 to 100 nM
EC50 [2]: 100 to 1000 nM

Cc1cc(NS(=O)(=O)c2cc3[nH]c(=O)c(=O)[nH]c3cc2Cl)ccc1-c1ccccc1 [Compound 45, 7-chloro-N-(2-methyl-[1,1′-biphenyl]-4-yl)-2,3-dioxo-1,2,3,4-tetrahydroquinoxaline-6-sulfonamide]
IC50 [1]: 30 to 100 nM
EC50 [2]: 30 to 100 nM

O=c1[nH]c2cc(Cl)c(S(=O)(=O)Nc3ccc(-c4ccc5c(c4)NCC5)c(Cl)c3)cc2[nH]c1=O [Compound 46, 7-chloro-N-(3-chloro-4-(indolin-6-yl)phenyl)-2,3-dioxo-1,2,3,4-tetrahydroquinoxaline-6-sulfonamide]
IC50 [1]: 30 to 100 nM
EC50 [2]: 100 to 1000 nM

O=c1[nH]c2cc(Cl)c(S(=O)(=O)Nc3ccc(OC(F)(F)F)cc3)cc2[nH]c1=O [Compound 47, 7-chloro-2,3-dioxo-N-(4-(trifluoromethoxy)phenyl)-1,2,3,4-tetrahydroquinoxaline-6-sulfonamide]
IC50 [1]: 30 to 100 nM
EC50 [2]: 30 to 100 nM

O=c1[nH]c2cc(Cl)c(S(=O)(=O)Nc3ccc(-c4cccnc4)c(Cl)c3)cc2[nH]c1=O [Compound 48, 7-chloro-N-(3-chloro-4-(pyridin-3-yl)phenyl)-2,3-dioxo-1,2,3,4-tetrahydroquinoxaline-6-sulfonamide]
IC50 [1]: 30 to 100 nM
EC50 [2]: 1000 to 6000 nM

CCCc1ccc(NS(=O)(=O)c2cc3[nH]c(=O)c(=O)[nH]c3cc2C)cc1 [Compound 49, 7-methyl-2,3-dioxo-N-(4-propylphenyl)-1,2,3,4-tetrahydroquinoxaline-6-sulfonamide]
IC50 [1]: < 30 nM
EC50 [2]: 30 to 100 nM

Cc1cc2[nH]c(=O)c(=O)[nH]c2cc1S(=O)(=O)Nc1ccc(C(F)(F)F)cc1 [Compound 50, 7-methyl-2,3-dioxo-N-(4-(trifluoromethyl)phenyl)-1,2,3,4-tetrahydroquinoxaline-6-sulfonamide]
IC50 [1]: 30 to 100 nM
EC50 [2]: 30 to 100 nM

Cc1cc2[nH]c(=O)c(=O)[nH]c2cc1S(=O)(=O)Nc1cc(C)c(-c2ccccc2F)c(C)c1 [Compound 51, N-(2′-fluoro-2,6-dimethyl-[1,1′-biphenyl]-4-yl)-7-methyl-2,3-dioxo-1,2,3,4-tetrahydroquinoxaline-6-sulfonamide]
IC50 [1]: 30 to 100 nM
EC50 [2]: 30 to 100 nM

Cc1ccc(-c2ccc(NS(=O)(=O)c3cc4[nH]c(=O)c(=O)[nH]c4cc3C)cc2Cl)s1 [Compound 52, N-(3-chloro-4-(5-methylthiophen-2-yl)phenyl)-7-methyl-2,3-dioxo-1,2,3,4-tetrahydroquinoxaline-6-sulfonamide]
IC50 [1]: 30 to 100 nM
EC50 [2]: 100 to 1000 nM

Cc1cc2[nH]c(=O)c(=O)[nH]c2cc1S(=O)(=O)Nc1ccc(C2CC2)cc1 [Compound 53, N-(4-cyclopropylphenyl)-7-methyl-2,3-dioxo-1,2,3,4-tetrahydroquinoxaline-6-sulfonamide]
IC50 [1]: 30 to 100 nM
EC50 [2]: < 30 nM

Cc1cc2[nH]c(=O)c(=O)[nH]c2cc1S(=O)(=O)Nc1ccc2c(c1)CCCC2 [Compound 54, 7-methyl-2,3-dioxo-N-(5,6,7,8-tetrahydronaphthalen-2-yl)-1,2,3,4-tetrahydroquinoxaline-6-sulfonamide]
IC50 [1]: 30 to 100 nM
EC50 [2]: 100 to 1000 nM

CCCc1ccc(NS(=O)(=O)c2cc3[nH]c(=O)c(=O)[nH]c3cc2Cl)cc1 [Compound 55, 7-chloro-2,3-dioxo-N-(4-propylphenyl)-1,2,3,4-tetrahydroquinoxaline-6-sulfonamide]
IC50 [1]: 30 to 100 nM
EC50 [2]: 30 to 100 nM

Cc1cc2[nH]c(=O)c(=O)[nH]c2cc1S(=O)(=O)Nc1ccc(C(F)(F)F)c(Cl)c1 [Compound 56, N-(3-chloro-4-(trifluoromethyl)phenyl)-7-methyl-2,3-dioxo-1,2,3,4-tetrahydroquinoxaline-6-sulfonamide]
IC50 [1]: 30 to 100 nM
EC50 [2]: 1000 to 6000 nM

Cc1cc2[nH]c(=O)c(=O)[nH]c2cc1S(=O)(=O)Nc1cc(C)c(-c2cccc(Cl)c2)c(C)c1 [Compound 57, N-(3′-chloro-2,6-dimethyl-[1,1′-biphenyl]-4-yl)-7-methyl-2,3-dioxo-1,2,3,4-tetrahydroquinoxaline-6-sulfonamide]
IC50 [1]: 30 to 100 nM
EC50 [2]: 30 to 100 nM

Cc1cc2[nH]c(=O)c(=O)[nH]c2cc1S(=O)(=O)Nc1cc(C)c(-c2cccs2)c(C)c1 [Compound 58, N-(3,5-dimethyl-4-(thiophen-2-yl)phenyl)-7-methyl-2,3-dioxo-1,2,3,4-tetrahydroquinoxaline-6-sulfonamide]
IC50 [1]: 30 to 100 nM
EC50 [2]: 1000 to 6000 nM

Cc1cc2[nH]c(=O)c(=O)[nH]c2cc1S(=O)(=O)Nc1cc(C)c(-c2cccc(N(C)C)c2)c(C)c1 [Compound 59, N-(3′-(dimethylamino)-2,6-dimethyl-[1,1′-biphenyl]-4-yl)-7-methyl-2,3-dioxo-1,2,3,4-tetrahydroquinoxaline-6-sulfonamide]
IC50 [1]: 30 to 100 nM
EC50 [2]: 100 to 1000 nM

Cc1cc2[nH]c(=O)c(=O)[nH]c2cc1S(=O)(=O)Nc1ccc2ccccc2c1 [Compound 60, 7-methyl-N-(naphthalen-2-yl)-2,3-dioxo-1,2,3,4-tetrahydroquinoxaline-6-sulfonamide]
IC50 [1]: 30 to 100 nM
EC50 [2]: 30 to 100 nM

Cc1cc2[nH]c(=O)c(=O)[nH]c2cc1S(=O)(=O)Nc1ccc(-c2ccccc2)cc1 [Compound 61, N-([1,1′-biphenyl]-4-yl)-7-methyl-2,3-dioxo-1,2,3,4-tetrahydroquinoxaline-6-sulfonamide]
IC50 [1]: < 30 nM
EC50 [2]: 30 to 100 nM

Cc1cc2[nH]c(=O)c(=O)[nH]c2cc1S(=O)(=O)Nc1ccc(-c2sccc2C)c(Cl)c1 [Compound 62, N-(3-chloro-4-(3-methylthiophen-2-yl)phenyl)-7-methyl-2,3-dioxo-1,2,3,4-tetrahydroquinoxaline-6-sulfonamide]
IC50 [1]: 30 to 100 nM
EC50 [2]: 100 to 1000 nM
